pIC50: −log10 of the molar value.
Key:
[1] = target: Glutamate [NMDA] receptor; assay: Inhibition of [3H]DCKA binding to N-methyl-D-aspartate glutamate receptor; type: protein-complex assay
[2] = target: Glutamate [NMDA] receptor; assay: Compound was tested for inhibition of [3H]DCKA binding to N-methyl-D-aspartate glutamate receptor; type: protein-complex assay; design: unit not given here

SMILES: O=Nc1c(O)nc2ccc(Cl)c(Cl)c2c1O
- pIC50 [1]: 6.77
- Log 1/IC50 [2]: 0.77

SMILES: COc1c(Br)cc2nc(O)c(O)nc2c1[N+](=O)[O-]
- pIC50 [1]: 7.19
- Log 1/IC50 [2]: 1.19

SMILES: Oc1nc2cc(Cl)cnc2c(O)c1-c1cccc(Oc2ccccc2)c1
- pIC50 [1]: 6.96
- Log 1/IC50 [2]: 0.96

SMILES: CCc1cc2nc(O)c(O)nc2c([N+](=O)[O-])c1Br
- pIC50 [1]: 7.09
- Log 1/IC50 [2]: 1.09

SMILES: Cc1cc(C)c2c(O)c([N+](=O)[O-])c(O)nc2c1
- pIC50 [1]: 6.54
- Log 1/IC50 [2]: 0.54

SMILES: Oc1nc2cc(Cl)cnc2c(O)c1Oc1cccc(-c2ccccc2)c1
- pIC50 [1]: 7.64
- Log 1/IC50 [2]: 1.64

SMILES: Cc1cc(C)c2nc(O)c(O)nc2c1
- pIC50 [1]: 5.68
- Log 1/IC50 [2]: -0.32

SMILES: O=[N+]([O-])c1c(O)nc2cc(Cl)ccc2c1O
- pIC50 [1]: 5.82
- Log 1/IC50 [2]: -0.18

SMILES: O=Nc1c(O)nc2cc(Cl)c(Cl)c(Cl)c2c1O
- pIC50 [1]: 8.15
- Log 1/IC50 [2]: 2.15

SMILES: O=[N+]([O-])c1c(O)nc2cccc(Cl)c2c1O
- pIC50 [1]: 4.21
- Log 1/IC50 [2]: -1.78

SMILES: Oc1nc2cc(Cl)c(Cl)cc2nc1O [2,3-DIHYDROXY-6,7-DICHLOROQUINOXALINE]
- pIC50 [1]: 6.89
- Log 1/IC50 [2]: 0.89

SMILES: O=[N+]([O-])c1c(O)nc2cc(Cl)c(Cl)cc2c1O
- pIC50 [1]: 6.40
- Log 1/IC50 [2]: 0.4

SMILES: O=[N+]([O-])c1c(O)nc2cc(Cl)c(Cl)c(Cl)c2c1O
- pIC50 [1]: 6.66
- Log 1/IC50 [2]: 0.66

SMILES: Cc1c(Br)cc2nc(O)c(O)nc2c1[N+](=O)[O-]
- pIC50 [1]: 8.06
- Log 1/IC50 [2]: 2.06

SMILES: Oc1nc2cc(Cl)cnc2c(O)c1-c1cccs1
- pIC50 [1]: 5.01
- Log 1/IC50 [2]: -0.99

SMILES: Oc1nc2cnccc2c(O)c1-c1cccc(Oc2ccccc2)c1
- pIC50 [1]: 5.27
- Log 1/IC50 [2]: -0.73

SMILES: Nc1c(F)cc2nc(O)c(O)nc2c1[N+](=O)[O-]
- pIC50 [1]: 4.96
- Log 1/IC50 [2]: -1.04

SMILES: Oc1nc2cc3ccccc3cc2nc1O
- pIC50 [1]: 4.80
- Log 1/IC50 [2]: -1.2

SMILES: Oc1nc2ncccc2c(O)c1-c1ccccc1
- pIC50 [1]: < 4.00
- Log 1/IC50 [2]: -2

SMILES: O=Nc1c(O)nc2cc(Cl)c(Cl)cc2c1O
- pIC50 [1]: 7.92
- Log 1/IC50 [2]: 1.92

SMILES: O=Nc1c(O)nc2c(F)c(Cl)c(F)cc2c1O
- pIC50 [1]: 6.04
- Log 1/IC50 [2]: 0.04

SMILES: Oc1nc2ccc(Cl)cc2nc1O
- pIC50 [1]: 5.74
- Log 1/IC50 [2]: -0.25

SMILES: CCCCOc1c(F)cc2nc(O)c(O)nc2c1[N+](=O)[O-]
- pIC50 [1]: 5.37
- Log 1/IC50 [2]: -0.63

SMILES: CCOc1c(F)cc2nc(O)c(O)nc2c1[N+](=O)[O-]
- pIC50 [1]: 5.44
- Log 1/IC50 [2]: -0.56

SMILES: N#Cc1cc([N+](=O)[O-])c2nc(O)c(O)nc2c1
- pIC50 [1]: 5.55
- Log 1/IC50 [2]: -0.45

SMILES: COc1c(Cl)cc2nc(O)c(O)nc2c1[N+](=O)[O-]
- pIC50 [1]: 6.82
- Log 1/IC50 [2]: 0.82

SMILES: Cc1cc([N+](=O)[O-])c2nc(O)c(O)nc2c1
- pIC50 [1]: 5.03
- Log 1/IC50 [2]: -0.97

SMILES: Oc1nc2c(F)c(F)c(F)c(F)c2nc1O
- pIC50 [1]: 6.14
- Log 1/IC50 [2]: 0.14

SMILES: O=Nc1c(O)nc2cc(Cl)ccc2c1O
- pIC50 [1]: 7.28
- Log 1/IC50 [2]: 1.28

SMILES: Oc1nc2cc3c(cc2nc1O)OCO3
- pIC50 [1]: < 4.00
- Log 1/IC50 [2]: -2

SMILES: O=[N+]([O-])c1c(O)nc2cc(Cl)cc(Cl)c2c1O
- pIC50 [1]: 6.66
- Log 1/IC50 [2]: 0.66

SMILES: Oc1nc2cc(F)c(Cl)c(F)c2nc1O
- pIC50 [1]: 6.20
- Log 1/IC50 [2]: 0.2

SMILES: Oc1nc2ccccc2nc1O
- pIC50 [1]: 5.01
- Log 1/IC50 [2]: -0.99

SMILES: Cc1cc2nc(O)c(O)nc2cc1Cl
- pIC50 [1]: 6.11
- Log 1/IC50 [2]: 0.11

SMILES: Oc1nc2cccnc2c(O)c1-c1ccccc1
- pIC50 [1]: < 4.00
- Log 1/IC50 [2]: -2

SMILES: O=Nc1c(O)nc2ccc(Cl)cc2c1O
- pIC50 [1]: 5.47
- Log 1/IC50 [2]: -0.53

SMILES: Oc1nc2cc(Cl)cnc2c(O)c1-c1ccccc1Cl
- pIC50 [1]: 4.62
- Log 1/IC50 [2]: -1.38

SMILES: O=[N+]([O-])c1cccc(-c2c(O)nc3cc(Cl)cnc3c2O)c1
- pIC50 [1]: 5.13
- Log 1/IC50 [2]: -0.87

SMILES: O=c1[nH]c2cc3c(c([N+](=O)[O-])c2[nH]c1=O)CCC3
- pIC50 [1]: 5.51
- Log 1/IC50 [2]: -0.49

SMILES: O=Nc1c(O)nc2ccccc2c1O
- pIC50 [1]: 5.85
- Log 1/IC50 [2]: -0.15

SMILES: Cc1c(Cl)cc2nc(O)c(O)nc2c1N
- pIC50 [1]: 6.82
- Log 1/IC50 [2]: 0.82

SMILES: Cc1cc2nc(O)c(O)nc2cc1C
- pIC50 [1]: 5.48
- Log 1/IC50 [2]: -0.52

SMILES: Oc1nc2cc(Cl)c(Cl)c(Cl)c2nc1O
- pIC50 [1]: 7.52
- Log 1/IC50 [2]: 1.53

SMILES: CCc1cc2nc(O)c(O)nc2cc1CC
- pIC50 [1]: 5.74
- Log 1/IC50 [2]: -0.26

SMILES: O=[N+]([O-])c1c(O)nc2c(F)c(Cl)c(F)cc2c1O
- pIC50 [1]: 4.40
- Log 1/IC50 [2]: -1.6

SMILES: Cc1cc2nc(O)c(O)nc2c([N+](=O)[O-])c1Cl
- pIC50 [1]: 7.35
- Log 1/IC50 [2]: 1.35

SMILES: Oc1nc2ccncc2c(O)c1-c1cccc(Oc2ccccc2)c1
- pIC50 [1]: 4.70
- Log 1/IC50 [2]: -1.3

SMILES: COc1cccc(-c2c(O)nc3cc(Cl)cnc3c2O)c1
- pIC50 [1]: 5.54
- Log 1/IC50 [2]: -0.46

SMILES: Oc1cc2nc(O)c(O)nc2cc1O
- pIC50 [1]: < 4.00
- Log 1/IC50 [2]: -2

SMILES: Oc1nc2cc(Cl)cnc2c(O)c1-c1ccc(Cl)cc1
- pIC50 [1]: 4.89
- Log 1/IC50 [2]: -1.11

SMILES: CCc1cc2nc(O)c(O)nc2c([N+](=O)[O-])c1Cl
- pIC50 [1]: 7.54
- Log 1/IC50 [2]: 1.54

SMILES: CCc1cc2nc(O)c(O)nc2c([N+](=O)[O-])c1CC
- pIC50 [1]: 6.80
- Log 1/IC50 [2]: 0.8

SMILES: Oc1nc2cc(Cl)cnc2c(O)c1-c1ccccc1
- pIC50 [1]: 5.48
- Log 1/IC50 [2]: -0.52

SMILES: COc1c(F)cc2nc(O)c(O)nc2c1[N+](=O)[O-]
- pIC50 [1]: 5.72
- Log 1/IC50 [2]: -0.28

SMILES: Oc1nc2ncccc2c(O)c1-c1cccc(Oc2ccccc2)c1
- pIC50 [1]: 4.51
- Log 1/IC50 [2]: -1.49

SMILES: Cc1cc(C)c2c(O)c(N=O)c(O)nc2c1
- pIC50 [1]: 7.43
- Log 1/IC50 [2]: 1.43

SMILES: COc1cc2nc(O)c(O)nc2c(O)c1OC
- pIC50 [1]: 4.77
- Log 1/IC50 [2]: -1.23

SMILES: O=[N+]([O-])c1c(O)nc2ccc(Cl)cc2c1O
- pIC50 [1]: < 4.00
- Log 1/IC50 [2]: -2

SMILES: Oc1nc2cc3c(cc2nc1O)CCC3
- pIC50 [1]: 4.82
- Log 1/IC50 [2]: -1.17

SMILES: O=Nc1c(O)nc2cccc(Cl)c2c1O
- pIC50 [1]: 5.36
- Log 1/IC50 [2]: -0.64

SMILES: CCc1c(Cl)cc2nc(O)c(O)nc2c1[N+](=O)[O-]
- pIC50 [1]: 6.89
- Log 1/IC50 [2]: 0.89

SMILES: Cc1cccc(-c2c(O)nc3cc(Cl)cnc3c2O)c1
- pIC50 [1]: 5.74
- Log 1/IC50 [2]: -0.25

SMILES: COc1cc2nc(O)c(O)nc2cc1Br
- pIC50 [1]: 6.00
- Log 1/IC50 [2]: 0

SMILES: Cc1c(F)cc2nc(O)c(O)nc2c1[N+](=O)[O-]
- pIC50 [1]: 7.02
- Log 1/IC50 [2]: 1.02

SMILES: O=[N+]([O-])c1c(O)nc2ccccc2c1O
- pIC50 [1]: 4.47
- Log 1/IC50 [2]: -1.53

SMILES: Cc1c(C#N)cc2nc(O)c(O)nc2c1[N+](=O)[O-]
- pIC50 [1]: 7.14
- Log 1/IC50 [2]: 1.14

SMILES: O=[N+]([O-])c1c(OCCCc2ccccc2)c(F)cc2nc(O)c(O)nc12
- pIC50 [1]: 5.40
- Log 1/IC50 [2]: -0.6

SMILES: CCSc1c(Cl)cc2nc(O)c(O)nc2c1[N+](=O)[O-]
- pIC50 [1]: 6.19
- Log 1/IC50 [2]: 0.19

SMILES: O=c1[nH]c2cc(Cl)c(Cl)c([N+](=O)[O-])c2[nH]c1=O [LICOSTINEL]
- pIC50 [1]: 8.23
- Log 1/IC50 [2]: 2.23

SMILES: CCc1cc2nc(O)c(O)nc2cc1Cl
- pIC50 [1]: 5.85
- Log 1/IC50 [2]: -0.15

SMILES: Cc1cc2nc(O)c(O)nc2c([N+](=O)[O-])c1C
- pIC50 [1]: 7.54
- Log 1/IC50 [2]: 1.54

SMILES: Oc1nc2cc(Cl)cnc2c(O)c1-c1cccc(Cl)c1
- pIC50 [1]: 5.52
- Log 1/IC50 [2]: -0.48

SMILES: COc1cc2nc(O)c(O)nc2c(OC(C)=O)c1OC
- pIC50 [1]: 4.28
- Log 1/IC50 [2]: -1.72

SMILES: Oc1nc2ncc(Cl)cc2c(O)c1-c1cccc(Oc2ccccc2)c1
- pIC50 [1]: 4.72
- Log 1/IC50 [2]: -1.28

SMILES: O=[N+]([O-])c1c(O)nc2c(F)c(F)c(F)c(F)c2c1O
- pIC50 [1]: < 4.00
- Log 1/IC50 [2]: -2

SMILES: Oc1nc2ncc(Cl)cc2c(O)c1-c1ccccc1
- pIC50 [1]: < 4.00
- Log 1/IC50 [2]: -2

SMILES: O=[N+]([O-])c1c(O)nc2c(Cl)cccc2c1O
- pIC50 [1]: < 4.00
- Log 1/IC50 [2]: -2

SMILES: O=Nc1c(O)nc2c(Cl)cccc2c1O
- pIC50 [1]: < 4.00
- Log 1/IC50 [2]: -2

SMILES: Oc1nc2cc(Cl)cc(Cl)c2nc1O
- pIC50 [1]: 6.55
- Log 1/IC50 [2]: 0.55

SMILES: Cc1c(Cl)cc2nc(O)c(O)nc2c1[N+](=O)[O-]
- pIC50 [1]: 8.33
- Log 1/IC50 [2]: 2.33

SMILES: O=[N+]([O-])c1c(O)nc2c(Cl)c(Cl)c(Cl)cc2c1O
- pIC50 [1]: < 4.00
- Log 1/IC50 [2]: -2

SMILES: O=Nc1c(O)nc2cc(Cl)cc(Cl)c2c1O
- pIC50 [1]: 7.48
- Log 1/IC50 [2]: 1.48

SMILES: O=Nc1c(O)nc2c(F)c(F)c(F)c(F)c2c1O
- pIC50 [1]: 5.48
- Log 1/IC50 [2]: -0.52

SMILES: COc1cc2nc(O)c(O)nc2cc1OC
- pIC50 [1]: 4.77
- Log 1/IC50 [2]: -1.23

SMILES: Oc1nc2cc(Cl)cnc2c(O)c1-c1ccsc1
- pIC50 [1]: 5.37
- Log 1/IC50 [2]: -0.63

— ChEMBL document CHEMBL1146606, “CoMFA and homology-based models of the glycine binding site of N-methyl-d-aspartate receptor” (J Med Chem, 2003)
